Measured values from patent US12662489B2 (Sitryx Therapeutics Limited, priority 2023, dated 2026).

Legend:
[1] = biological target: T1, MTHFD2 recombinant human enzyme (Homo sapiens, UniProt P13995); assay: MTHFD2 inhibition assay (NAD(P)H-Glo luminescence)
T1 sequence (P13995 36-350): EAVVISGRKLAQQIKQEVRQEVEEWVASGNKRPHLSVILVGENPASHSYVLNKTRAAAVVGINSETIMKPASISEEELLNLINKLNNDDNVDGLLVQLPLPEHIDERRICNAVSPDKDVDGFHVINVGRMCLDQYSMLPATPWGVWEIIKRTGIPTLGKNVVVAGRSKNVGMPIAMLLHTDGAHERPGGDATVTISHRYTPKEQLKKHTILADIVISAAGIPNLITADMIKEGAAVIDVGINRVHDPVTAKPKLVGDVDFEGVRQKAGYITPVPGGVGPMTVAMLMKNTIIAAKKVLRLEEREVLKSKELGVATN

[2] = biological target: T2, MTHFD1 recombinant human enzyme (Homo sapiens, UniProt P11586); assay: MTHFD1 inhibition assay (NAD(P)H-Glo luminescence); details: MTHFD1 IC50, recombinant human enzyme 200 nM, NADP, band
T2 sequence (P11586 2-291 limits assumed): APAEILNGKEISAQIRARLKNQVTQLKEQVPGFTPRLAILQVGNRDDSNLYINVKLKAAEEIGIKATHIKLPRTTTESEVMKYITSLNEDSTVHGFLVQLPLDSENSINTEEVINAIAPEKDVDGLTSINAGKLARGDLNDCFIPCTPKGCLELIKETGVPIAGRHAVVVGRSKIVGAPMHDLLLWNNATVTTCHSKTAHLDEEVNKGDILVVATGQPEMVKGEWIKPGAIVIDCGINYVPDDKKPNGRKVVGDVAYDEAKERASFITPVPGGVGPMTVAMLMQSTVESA

[3] = selectivity of MTHFD2 inhibition over MTHFD1, band

SMILES	IC50 [1] [nM]	MTHFD1/MTHFD2 IC50 ratio [1, 3]	IC50 [2] [nM]	MTHFD1/MTHFD2 IC50 ratio ([1]; mean value after increased number of repeats, band)
COC[C@H]1CN(c2cc(C)c3c4c(c(=O)oc3c2C)CN(C(=O)c2ccc(C(=O)NS(=O)(=O)C3(C)CC3)c(N(C)C)c2)CC4)CCN1C [Example 79, (R)-2-(dimethylamino)-4-(8-(3-(methoxymethyl)-4-methylpiperazin-1-yl)-7,10-dimethyl-5-oxo-1,3,4,5-tetrahydro-2H-chromeno[3,4-c]pyridine-3-carbonyl)-N-((1-methylcyclopropyl)sulfonyl)benzamide]	1 to 10	H (>9.0 to 30)	10 to 100	–
COC[C@H]1CN(c2ccc3c4c(c(=O)oc3c2C)CN(C(=O)c2cc(N3CC5CC5C3)c(C(=O)NS(=O)(=O)N(C)C)c(C(F)(F)F)c2)CC4)CCN1C (stereo partly drawn) [Example 118, 2-(3-azabicyclo[3.1.0]hexan-3-yl)-N-(N,N-dimethylsulfamoyl)-4-(8-((R)-3-(methoxymethyl)-4-methylpiperazin-1-yl)-7-methyl-5-oxo-1,3,4,5-tetrahydro-2H-chromeno[3,4-c]pyridine-3-carbonyl)-6-(trifluoromethyl)benzamide]	100 to 1000	H (>9.0 to 30)	1000 to 5000	–
COC[C@H]1CN(c2ccc3c4c(c(=O)oc3c2Cl)CN(C(=O)c2ccc(C(=O)NS(=O)(=O)N(C)C(C)C)c(O[C@@H]3C[C@@H]5C[C@@H]5C3)c2F)CC4)CCN1C [Example 65, 2-(((1R,3r,5S)-bicyclo[3.1.0]hexan-3-yl)oxy)-4-(7-chloro-8-((R)-3-(methoxymethyl)-4-methylpiperazin-1-yl)-5-oxo-1,3,4,5-tetrahydro-2H-chromeno[3,4-c]pyridine-3-carbonyl)-3-fluoro-N-(N-isopropyl-N-methylsulfamoyl)benzamide]	10 to 100	F (<3)	1 to 10	–
CCOc1c(C(=O)NS(=O)(=O)N2CC3CC3C2)ccc(C(=O)N2CCc3c(c(=O)oc4c(CC)c(N5CCN(C)[C@@H](COC)C5)ccc34)C2)c1F (stereo partly drawn) [Example 214, N-((3-azabicyclo[3.1.0]hexan-3-yl)sulfonyl)-2-ethoxy-4-(7-ethyl-8-((R)-3-(methoxymethyl)-4-methylpiperazin-1-yl)-5-oxo-1,3,4,5-tetrahydro-2H-chromeno[3,4-c]pyridine-3-carbonyl)-3-fluorobenzamide]	10 to 100	F (<3)	10 to 100	–
COC[C@H]1CN(c2cc(C)c3c4c(c(=O)oc3c2C)CN(C(=O)c2ccc(C(=O)NS(=O)(=O)N(C)C)c(OC3C[C@@H]5C[C@@H]5C3)c2)CC4)CCN1C (mixture of isomers) [Example 108, 2-(bicyclo[3.1.0]hexan-3-yloxy)-N-(N,N-dimethylsulfamoyl)-4-(8-((R)-3-(methoxymethyl)-4-methylpiperazin-1-yl)-7,10-dimethyl-5-oxo-1,3,4,5-tetrahydro-2H-chromeno[3,4-c]pyridine-3-carbonyl)benzamide]	10 to 100	F (<3)	10 to 100	–
COC[C@H]1CN(c2ccc3c4c(c(=O)oc3c2C)CN(C(=O)c2ccc(C(=O)NS(=O)(=O)C3(C)CC3)c(OC3CCC3)c2F)CC4)CCN1C [Example 42, (R)-2-cyclobutoxy-3-fluoro-4-(8-(3-(methoxymethyl)-4-methylpiperazin-1-yl)-7-methyl-5-oxo-1,3,4,5-tetrahydro-2H-chromeno[3,4-c]pyridine-3-carbonyl)-N-((1-methylcyclopropyl)sulfonyl)benzamide]	1 to 10	G (^ 3 to 9.0)	1 to 10	–
COC[C@H]1CN(c2cc(Cl)c3c4c(c(=O)oc3c2C)CN(C(=O)c2cc(N(C)C)c(C(=O)NS(=O)(=O)N3CCC5(COC5)C3)cc2F)CC4)CCN1C [Example 273, (R)-N-((2-oxa-6-azaspiro[3.4]octan-6-yl)sulfonyl)-4-(10-chloro-8-(3-(methoxymethyl)-4-methylpiperazin-1-yl)-7-methyl-5-oxo-1,3,4,5-tetrahydro-2H-chromeno[3,4-c]pyridine-3-carbonyl)-2-(dimethylamino)-5-fluorobenzamide]	10 to 100	H (>9.0 to 30)	100 to 1000	–
COC[C@H]1CN(c2cc(C)c3c4c(c(=O)oc3c2C)CN(C(=O)c2ccc(C(=O)NS(=O)(=O)C3(C)CC3)c(N(C)C3CC3)c2)CC4)CCN1C [Example 83, (R)-2-(cyclopropyl(methyl)amino)-4-(8-(3-(methoxymethyl)-4-methylpiperazin-1-yl)-7,10-dimethyl-5-oxo-1,3,4,5-tetrahydro-2H-chromeno[3,4-c]pyridine-3-carbonyl)-N-((1-methylcyclopropyl)sulfonyl)benzamide]	1 to 10	G (^ 3 to 9.0)	10 to 100	H* (>9.0 to 30)
COC[C@H]1CN(c2cc(C)c3c4c(c(=O)oc3c2C)CN(C(=O)c2ccc(C(=O)NS(=O)(=O)N(C)C)c(N3CCCC(F)(F)C3)c2)CC4)CCN1C [Example 77, (R)-2-(3,3-difluoropiperidin-1-yl)-N-(N,N-dimethylsulfamoyl)-4-(8-(3-(methoxymethyl)-4-methylpiperazin-1-yl)-7,10-dimethyl-5-oxo-1,3,4,5-tetrahydro-2H-chromeno[3,4-c]pyridine-3-carbonyl)benzamide]	1 to 10	F (<3)	1 to 10	–
COC[C@H]1CN(c2cc(C)c3c4c(c(=O)oc3c2C)CN(C(=O)c2cc(OC3CCC3)c(C(=O)NS(=O)(=O)N3CCCC3)c(C(F)(F)F)c2)CC4)CCN1C [Example 132, (R)-2-cyclobutoxy-4-(8-(3-(methoxymethyl)-4-methylpiperazin-1-yl)-7,10-dimethyl-5-oxo-1,3,4,5-tetrahydro-2H-chromeno[3,4-c]pyridine-3-carbonyl)-N-(pyrrolidin-1-ylsulfonyl)-6-(trifluoromethyl)benzamide]	10 to 100	H (>9.0 to 30)	100 to 1000	–
COC[C@H]1CN(c2ccc3c4c(c(=O)oc3c2Cl)CN(C(=O)c2ccc(C(=O)NS(=O)(=O)N3CCCC3)c(O[C@@H]3C[C@@H]5C[C@@H]5C3)c2F)CC4)CCN1C [Example 62, 2-(((1R,3r,5S)-bicyclo[3.1.0]hexan-3-yl)oxy)-4-(7-chloro-8-((R)-3-(methoxymethyl)-4-methylpiperazin-1-yl)-5-oxo-1,3,4,5-tetrahydro-2H-chromeno[3,4-c]pyridine-3-carbonyl)-3-fluoro-N-(pyrrolidin-1-ylsulfonyl)benzamide]	10 to 100	F (<3)	1 to 10	–
COC[C@H]1CN(c2cc(C)c3c4c(c(=O)oc3c2C)CN(C(=O)c2ccc(C(=O)NS(=O)(=O)N(C)C)c(O[C@@H]3C[C@@H]5C[C@@H]5C3)c2F)CC4)CCN1C [Example 11, 2-(((1R,3r,5S)-bicyclo[3.1.0]hexan-3-yl)oxy)-N-(N,N-dimethylsulfamoyl)-3-fluoro-4-(8-((R)-3-(methoxymethyl)-4-methylpiperazin-1-yl)-7,10-dimethyl-5-oxo-1,3,4,5-tetrahydro-2H-chromeno[3,4-c]pyridine-3-carbonyl)benzamide]	1 to 10	F (<3)	1 to 10	–
COC[C@H]1CN(c2cc(Cl)c3c4c(c(=O)oc3c2C)CN(C(=O)c2ccc(C(=O)NS(=O)(=O)N3CCC[C@@H]3COC)c(OC)c2)CC4)CCN1C [Example 288, 4-(10-chloro-8-((R)-3-(methoxymethyl)-4-methylpiperazin-1-yl)-7-methyl-5-oxo-1,3,4,5-tetrahydro-2H-chromeno[3,4-c]pyridine-3-carbonyl)-2-methoxy-N-(((R)-2-(methoxymethyl)pyrrolidin-1-yl)sulfonyl)benzamide]	10 to 100	J (>30)	1000 to 5000	–
CCOc1c(C(=O)NS(=O)(=O)N2CC3CCC(C3)C2)ccc(C(=O)N2CCc3c(c(=O)oc4c(C)c(N5CCN(C)[C@@H](COC)C5)ccc34)C2)c1F [Example 237]	10 to 100	F (<3)	10 to 100	–
CCOc1c(C(=O)NS(=O)(=O)N2C3CCC2CC3)ccc(C(=O)N2CCc3c(c(=O)oc4c(Cl)c(N5CCN(C)[C@@H](COC)C5)ccc34)C2)c1F [Example 209, (R)-N-((7-azabicyclo[2.2.1]heptan-7-yl)sulfonyl)-4-(7-chloro-8-(3-(methoxymethyl)-4-methylpiperazin-1-yl)-5-oxo-1,3,4,5-tetrahydro-2H-chromeno[3,4-c]pyridine-3-carbonyl)-2-ethoxy-3-fluorobenzamide]	10 to 100	F (<3)	10 to 100	–
COC[C@H]1CN(c2ccc3c4c(c(=O)oc3c2Cl)CN(C(=O)c2ccc(C(=O)NS(=O)(=O)C3(C)CC3)c(OC3CCC3)c2)CC4)CCN1C [Example 10, (R)-4-(7-chloro-8-(3-(methoxymethyl)-4-methylpiperazin-1-yl)-5-oxo-1,3,4,5-tetrahydro-2H-chromeno[3,4-c]pyridine-3-carbonyl)-2-cyclobutoxy-N-((1-methylcyclopropyl)sulfonyl)benzamide]	10 to 100	F (<3)	10 to 100	–
